{"source": "paper PMC8832507", "about": "(Molecular cancer therapeutics, 2021)", "key": {"tumor spheroids": {"tested_on": "tumor spheroids", "assay": "Tumor spheroid pharmacodynamic marker", "format": "cell-based", "settings": "for Bystander penetration in spheroids by γH2A.X PD signal (in words): 24-72 hours; for Bystander penetration in spheroids by pH3 PD signal (in words): 25 nM AF680-ADC or AF680-trastuzumab, 24-48 hours"}, "MDA-MB-468 cells": {"tested_on": "MDA-MB-468 cells", "assay": "Cytotoxicity", "format": "cell-based", "settings": "for pIC50: read-out: Free payload IC50, MDA-MB-468 cells"}, "HCC1954 cells": {"tested_on": "HCC1954 cells", "assay": "Cytotoxicity", "format": "cell-based", "settings": "for pIC50: read-out: Free payload IC50"}, "[1]": {"tested_on": "HCC1954 (Ag+) and MDA-MB-468 (Ag−) co-culture", "assay": "Bystander co-culture assay", "format": "cell-based"}, "PAMPA permeability assay": {"assay": "PAMPA permeability assay", "settings": "free payload"}}, "note": "pIC50: −log10 of the molar value. Where a SMILES comes first, the peptide text is derived from it. [ ]: non-standard residue; d: D form. The star is where a group is joined. Dolaproine = CO[C@@H]([C@@H]1CCCN1)[C@@H](C)C(=O)O; Dil = CC[C@H](C)[C@H](NC)[C@@H](CC(=O)O)OC; X1 = C[C@@H](N*)[C@@H](O)c1ccccc1; NMeV = CN[C@H](C(=O)O)C(C)C"}
{"compound": "calicheamicin D [CaliD]", "values": [{"measurement": "Bystander penetration in spheroids by γH2A.X PD signal (in words)", "setting": "tumor spheroids; 25 nM AF680-ADC", "result": "greatest bystander cell killing"}, {"measurement": "PD response in spheroids with potency matched doses (in words)", "setting": "tumor spheroids; T-CaliG 75nM, T-CaliD 1nM", "result": "more efficient at reaching cells in the spheroid center"}]}
{"compound": "CC[C@@]1(O)C(=O)OCc2c1cc1n(c2=O)Cc2c-1nc1cc(F)c(C)c3c1c2[C@@H](NC(=O)CO)CC3", "note": "[DXd]", "values": [{"measurement": "Fold higher free payload sensitivity of MDA-MB-468 cells compared to HCC1954", "setting": "MDA-MB-468 cells", "result": "2–3 fold"}, {"measurement": "pIC50", "setting": "MDA-MB-468 cells", "result": "~8.64"}, {"measurement": "pIC50", "setting": "HCC1954 cells", "result": "~8.21"}, {"measurement": "Ag− cell death in co-culture", "setting": "[1]; any concentration higher than 250 pM", "result": 100, "unit": "%"}]}
{"compound": "CC[C@H](C)[C@@H]([C@@H](CC(=O)N1CCC[C@H]1[C@H](OC)[C@@H](C)C(=O)N[C@H](C)[C@@H](O)c1ccccc1)OC)N(C)C(=O)[C@@H](NC(=O)[C@@H](NC)C(C)C)C(C)C", "note": "[MMAE] (H-[NMeV]V[Dil][Dolaproine]-X1)", "values": [{"measurement": "PAMPA permeability, fold higher than either Ahx-maytansine or Lys-SMCC-DM1", "setting": "PAMPA permeability assay", "result": "~10", "unit": "fold"}, {"measurement": "Free payload IC50, fold more potent than either Ahx-maytansine or Lys-SMCC-DM1", "setting": "HCC1954 cells", "result": "over 100 fold"}, {"measurement": "Bystander penetration in spheroids by pH3 PD signal (in words)", "setting": "tumor spheroids", "result": "pH3 signal throughout the spheroid at 48 hours"}]}
{"compound": "CCc1c2c(nc3ccc(O)cc13)-c1cc3c(c(=O)n1C2)COC(=O)[C@]3(O)CC", "note": "[SN-38]", "values": [{"measurement": "Fold higher free payload sensitivity of MDA-MB-468 cells compared to HCC1954", "setting": "MDA-MB-468 cells", "result": "2–3 fold"}, {"measurement": "pIC50", "setting": "MDA-MB-468 cells", "result": "~9.22"}, {"measurement": "pIC50", "setting": "HCC1954 cells", "result": "~8.74"}, {"measurement": "Bystander penetration in spheroids by γH2A.X PD signal (in words)", "setting": "tumor spheroids; 25 nM AF680-ADC", "result": "not readily apparent"}]}
{"compound": "T-DM1", "values": [{"measurement": "Distance from spheroid edge of directly targeted cells showing pH3 signal", "setting": "tumor spheroids; 25 nM AF680-ADC", "result": "~ 75 µm"}, {"measurement": "Bystander penetration in spheroids by pH3 PD signal (in words)", "setting": "tumor spheroids", "result": "did not exhibit bystander killing even at 48 hours"}, {"measurement": "Ag+ cell death in co-culture (in words)", "setting": "[1]; 1 nM ADC, 6 days", "result": "complete Ag+ cell death"}, {"measurement": "Ag− cell bystander toxicity in co-culture (in words)", "setting": "[1]; 1 nM ADC, 6 days, varying % Ag+ cells", "result": "no Ag− toxicity even at a 90% Ag+ cell percentage"}]}
{"compound": "Ahx-maytansine", "values": [{"measurement": "Bystander penetration in spheroids by pH3 PD signal (in words)", "setting": "tumor spheroids", "result": "detectable but localized bystander cell death"}]}
{"compound": "calicheamicin G [CaliG]", "values": [{"measurement": "Bystander penetration in spheroids by γH2A.X PD signal (in words)", "setting": "tumor spheroids; 25 nM AF680-ADC", "result": "negligible"}]}
{"compound": "CC[C@@]1(O)C(=O)OCc2c1cc1n(c2=O)Cc2c-1nc1cc(F)c(C)c3c1c2[C@@H](N)CC3", "note": "[exatecan]", "values": [{"measurement": "PAMPA permeability, fold higher than DXd", "setting": "PAMPA permeability assay", "result": "~ 2 fold"}, {"measurement": "PAMPA permeability, fold higher than SN-38", "setting": "PAMPA permeability assay", "result": "~ 5 fold"}, {"measurement": "Bystander penetration in spheroids by γH2A.X PD signal (in words)", "setting": "tumor spheroids; 25 nM AF680-ADC", "result": "greatest PD signal at the spheroid center"}, {"measurement": "Bystander efficiency in modified co-culture (in words)", "setting": "[1]; fixed number of Ag− cells, increasing number of Ag+ cells, fixed ADC concentration", "result": "more efficient"}]}
